Assay results taken from patent US20080214611A1, “Pharmaceutical Compositions - 659” (AstraZeneca AB, priority 2007, published 2008).

Experiments:
[1] = rat, in vivo, po
Experimental: (§1) The dispersions prepared according to Example 1 and Example 2 were tested in in vivo rat study together with dispersions comprising crystalline particles (prepared by wet milling) of compound A and B, respectively. The dispersions were orally administered at 100 mmol/kg.
(§2) The open circles illustrate the results obtained upon administration of the dispersions comprising crystalline particles.

[2] = in vivo rat study: plasma concentration after oral administration of amorphous versus wet-milled crystalline dispersions; conditions: 100 mmol/kg, maximum plasma concentration ratio of amorphous dispersion (Example 1 or 2) to wet-milled crystalline dispersion
Experimental: as §1, §2

SMILES | AUCamorph/AUCcrystal [1] | c^maxamorph/c^maxcrystal [2]
O=C(NC1CCCCC1O)c1nn(-c2ccc(Cl)cc2Cl)c(-c2ccc(OS(=O)(=O)CCC(F)(F)F)cc2)c1CO (centres unmarked) [Compound A, 1-propanesulfonic acid, 3,3,3-trifluoro-, 4-[1-(2,4-dichlorophenyl)-3-[[(2-hydroxycyclohexyl)amino]carbonyl]-4-(hydroxymethyl)-1H-pyrazol-5-yl]phenyl ester] | 4.8 | 
O=C(NC1CCCCC1)c1nn(-c2ccc(Cl)cc2Cl)c(-c2ccc(OS(=O)(=O)CCC(F)(F)F)cc2)c1CO [Compound B, 1-propanesulfonic acid, 3,3,3-trifluoro-, 4-[3-[(cyclohexylamino)carbonyl]-1-(2,4-dichlorophenyl)-4-(hydroxymethyl)-1H-pyrazol-5-yl]phenyl ester] |  | 10
